Test system: Nrf2 transcriptional activity (pARE-Luc reporter) in HepG2 cells
Test: In vitro Nrf2 transcriptional activity measurement by ARE-dependent reporter assay in HepG2 cell
Type: cell-based, human
Settings: Homo sapiens; HepG2 cells transfected with pARE-Luc, 4 hours at 37° C.; luciferase activity of Example 1-54 or Example 17-23 at 3.75 μM defined as 100%
Protocol: Test Example 1: In Vitro Nrf2 Transcriptional Activity Measurement by ARE-Dependent Reporter Assay in HepG2 Cell
A human liver cancer-derived cell line HepG2 was transfected with pGL4.37 vector (pARE-Luc, Promega Corp.) and incubated overnight at 37° C. in a humidified atmosphere containing 5% CO2. The cells were dissociated by trypsin treatment, inoculated to a 384-well plate supplemented with a test compound, and incubated at 37° C. for 4 hours. Then, Bright-Glo Reagent (Promega Corp.) was added to the plate, and luciferase activity was measured with Envision plate reader.
Luciferase activity obtained through the action of the compound of Example 1-54 or Example 17-23 at a concentration of 3.75 μM was defined as 100%. The luciferase activity of each well was converted to a response rate (%). The dose-response curve of the compound of each Example was prepared to calculate a 50% effective concentration (EC50).

| SMILES | EC50 |
| --- | --- |
| O=C(O)c1cc(F)c(-c2cccc3c2OCN(C(=O)c2c(Cl)cc(N4CC(O)C4)cc2Cl)C3)cc1N1C2CCC1COC2 [Compound 1-17, 4-[3-[2,6-Dichloro-4-(3-hydroxyazetidin-1-yl)benzoyl]-2,4-dihydro-1,3-benzoxazin-8-yl]-5-fluoro-2-(3-oxa-8-azabicyclo[3.2.1]octan-8-yl)benzoic acid] | 19 nM |
| O=C(O)c1cc(F)c(-c2cccc3c2OCN(C(=O)c2c(Cl)cc(N4CC(F)(F)C4)cc2Cl)C3)cc1N1C2CCC1COC2 [Compound 1-19, 4-[3-[2,6-Dichloro-4-(3,3-difluoroazetidin-1-yl)benzoyl]-2,4-dihydro-1,3-benzoxazin-8-yl]-5-fluoro-2-(3-oxa-8-azabicyclo[3.2.1]octan-8-yl)benzoic acid] | 6.3 nM |
| O=C(O)c1cc(F)c(-c2cccc3c2OCN(C(=O)c2c(Cl)cc(N4CC(F)C4)cc2Cl)C3)cc1N1C2CCC1COC2 [Compound 1-20, 4-[3-[2,6-Dichloro-4-(3-fluoroazetidin-1-yl)benzoyl]-2,4-dihydro-1,3-benzoxazin-8-yl]-5-fluoro-2-(3-oxa-8-azabicyclo[3.2.1]octan-8-yl)benzoic acid] | 3.2 nM |
| CO[C@@H]1COC2(C1)CN(c1cc(Cl)c(C(=O)N3COc4c(cccc4-c4cc(N5C6CCC5COC6)c(C(=O)O)cc4F)C3)c(Cl)c1)C2 [Compound 1-22, 4-[3-[2,6-Dichloro-4-[(7S)-7-methoxy-5-oxa-2-azaspiro[3.4]octan-2-yl]benzoyl]-2,4-dihydro-1,3-benzoxazin-8-yl]-5-fluoro-2-(3-oxa-8-azabicyclo[3.2.1]octan-8-yl)benzoic acid] | 2.1 nM |
| CO[C@H]1COC2(C1)CN(c1cc(Cl)c(C(=O)N3COc4c(cccc4-c4cc(N5C6CCC5COC6)c(C(=O)O)cc4F)C3)c(Cl)c1)C2 [Compound 1-23, 4-[3-[2,6-Dichloro-4-[(7R)-7-methoxy-5-oxa-2-azaspiro[3.4]octan-2-yl]benzoyl]-2,4-dihydro-1,3-benzoxazin-8-yl]-5-fluoro-2-(3-oxa-8-azabicyclo[3.2.1]octan-8-yl)benzoic acid] | 1.9 nM |
| CO[C@H]1C[C@@]2(CN(c3cc(Cl)c(C(=O)N4COc5c(cccc5-c5cc(N6C7CCC6COC7)c(C(=O)O)cc5F)C4)c(Cl)c3)[C@@H]2C)C1 [Compound 1-24, 4-[3-[2,6-Dichloro-4-[(1R,4r,6R)-6-methoxy-1-methyl-2-azaspiro[3.3]heptan-2-yl]benzoyl]-2,4-dihydro-1,3-benzoxazin-8-yl]-5-fluoro-2-(3-oxa-8-azabicyclo[3.2.1]octan-8-yl)benzoic acid] | 1.4 nM |
| CO[C@H]1C[C@@]2(CN(c3cc(Cl)c(C(=O)N4COc5c(cccc5-c5cc(N6C7CCC6COC7)c(C(=O)O)cc5F)C4)c(Cl)c3)[C@H]2C)C1 [Compound 1-25, 4-[3-[2,6-Dichloro-4-[(1S,4r,6S)-6-methoxy-1-methyl-2-azaspiro[3.3]heptan-2-yl]benzoyl]-2,4-dihydro-1,3-benzoxazin-8-yl]-5-fluoro-2-(3-oxa-8-azabicyclo[3.2.1]octan-8-yl)benzoic acid] | 1.5 nM |
| CO[C@H]1C[C@]2(CN(c3cc(Cl)c(C(=O)N4COc5c(cccc5-c5cc(N6C7CCC6COC7)c(C(=O)O)cc5F)C4)c(Cl)c3)[C@@H]2C)C1 [Compound 1-26, 4-[3-[2,6-Dichloro-4-[(1R,4s,6S)-6-methoxy-1-methyl-2-azaspiro[3.3]heptan-2-yl]benzoyl]-2,4-dihydro-1,3-benzoxazin-8-yl]-5-fluoro-2-(3-oxa-8-azabicyclo[3.2.1]octan-8-yl)benzoic acid] | 1.4 nM |
| CO[C@H]1C[C@]2(CN(c3cc(Cl)c(C(=O)N4COc5c(cccc5-c5cc(N6C7CCC6COC7)c(C(=O)O)cc5F)C4)c(Cl)c3)[C@H]2C)C1 [Compound 1-27, 4-[3-[2,6-Dichloro-4-[(1S,4s,6R)-6-methoxy-1-methyl-2-azaspiro[3.3]heptan-2-yl]benzoyl]-2,4-dihydro-1,3-benzoxazin-8-yl]-5-fluoro-2-(3-oxa-8-azabicyclo[3.2.1]octan-8-yl)benzoic acid] | 2.9 nM |
| CO[C@@H]1CCOC12CN(c1cc(Cl)c(C(=O)N3COc4c(cccc4-c4cc(N5C6CCC5COC6)c(C(=O)O)cc4F)C3)c(Cl)c1)C2 [Compound 1-30, 4-[3-[2,6-Dichloro-4-[(8R)-8-methoxy-5-oxa-2-azaspiro[3.4]octan-2-yl]benzoyl]-2,4-dihydro-1,3-benzoxazin-8-yl]-5-fluoro-2-(3-oxa-8-azabicyclo[3.2.1]octan-8-yl)benzoic acid] | 2.6 nM |
| CO[C@H]1CCOC12CN(c1cc(Cl)c(C(=O)N3COc4c(cccc4-c4cc(N5C6CCC5COC6)c(C(=O)O)cc4F)C3)c(Cl)c1)C2 [Compound 1-31, 4-[3-[2,6-Dichloro-4-[(8S)-8-methoxy-5-oxa-2-azaspiro[3.4]octan-2-yl]benzoyl]-2,4-dihydro-1,3-benzoxazin-8-yl]-5-fluoro-2-(3-oxa-8-azabicyclo[3.2.1]octan-8-yl)benzoic acid] | 1.9 nM |
| O=C(O)c1cc(F)c(-c2cccc3c2OCN(C(=O)c2c(Cl)cc(N4CCNC(C(F)(F)F)C4)cc2Cl)C3)cc1N1C2CCC1COC2 (stereo not shown) [Compound 1-32, 4-[3-[2,6-Dichloro-4-[3-(trifluoromethyl)piperazin-1-yl]benzoyl]-2,4-dihydro-1,3-benzoxazin-8-yl]-5-fluoro-2-(3-oxa-8-azabicyclo[3.2.1]octan-8-yl)benzoic acid] | 1.5 nM |
| CN1CCN(c2cc(Cl)c(C(=O)N3COc4c(cccc4-c4cc(N5C6CCC5COC6)c(C(=O)O)cc4F)C3)c(Cl)c2)CC12COC2 [Compound 1-34, 4-[3-[2,6-Dichloro-4-(5-methyl-2-oxa-5,8-diazaspiro[3.5]nonan-8-yl)benzoyl]-2,4-dihydro-1,3-benzoxazin-8-yl]-5-fluoro-2-(3-oxa-8-azabicyclo[3.2.1]octan-8-yl)benzoic acid] | 39 nM |
| O=C(O)c1cc(F)c(-c2cccc3c2OCN(C(=O)c2c(Cl)cc(N4CCN(CC(F)(F)F)CC4)cc2Cl)C3)cc1N1C2CCC1COC2 [Compound 1-35, 4-[3-[2,6-Dichloro-4-[4-(2,2,2-trifluoroethyl)piperazin-1-yl]benzoyl]-2,4-dihydro-1,3-benzoxazin-8-yl]-5-fluoro-2-(3-oxa-8-azabicyclo[3.2.1]octan-8-yl)benzoic acid] | 5.8 nM |
| CN1CC2CCCC(C1)N2c1cc(Cl)c(C(=O)N2COc3c(cccc3-c3cc(N4C5CCC4COC5)c(C(=O)O)cc3F)C2)c(Cl)c1 [Compound 1-36, 4-[3-[2,6-Dichloro-4-(3-methyl-3,9-diazabicyclo[3.3.1]nonan-9-yl)benzoyl]-2,4-dihydro-1,3-benzoxazin-8-yl]-5-fluoro-2-(3-oxa-8-azabicyclo[3.2.1]octan-8-yl)benzoic acid] | 1.8 nM |
| O=C(O)c1cc(F)c(-c2cccc3c2OCN(C(=O)c2c(Cl)cc(N4CC5CCC(C4)O5)cc2Cl)C3)cc1N1C2CCC1COC2 [Compound 1-37, 4-[3-[2,6-Dichloro-4-(8-oxa-3-azabicyclo[3.2.1]octan-3-yl)benzoyl]-2,4-dihydro-1,3-benzoxazin-8-yl]-5-fluoro-2-(3-oxa-8-azabicyclo[3.2.1]octan-8-yl)benzoic acid] | 2.1 nM |
| O=C(O)c1cc(F)c(-c2cccc3c2OCN(C(=O)c2c(Cl)cc(N4CCOC5CC54)cc2Cl)C3)cc1N1C2CCC1COC2 (stereo not shown) [Compound 1-38, 4-[3-[2,6-Dichloro-4-(2-oxa-5-azabicyclo[4.1.0]heptan-5-yl)benzoyl]-2,4-dihydro-1,3-benzoxazin-8-yl]-5-fluoro-2-(3-oxa-8-azabicyclo[3.2.1]octan-8-yl)benzoic acid] | 1.8 nM |
| O=C(O)c1cc(F)c(-c2cccc3c2OCN(C(=O)c2c(Cl)cc(N4CCn5nccc5C4)cc2Cl)C3)cc1N1C2CCC1COC2 [Compound 1-39] | 18 nM |
| COC1CN(c2cc(Cl)c(C(=O)N3COc4c(cccc4-c4cc(N5C6CCC5COC6)c(C(=O)O)cc4F)C3)c(Cl)c2)CCO1 (stereo not shown) [Compound 1-40, 4-[3-[2,6-Dichloro-4-(2-methoxymorpholin-4-yl)benzoyl]-2,4-dihydro-1,3-benzoxazin-8-yl]-5-fluoro-2-(3-oxa-8-azabicyclo[3.2.1]octan-8-yl)benzoic acid] | 3 nM |
| O=C(O)c1cc(F)c(-c2cccc3c2OCN(C(=O)c2c(Cl)cc(N4C5CCC4COC5)cc2Cl)C3)cc1N1C2CCC1COC2 [Compound 1-41, 4-[3-[2,6-Dichloro-4-(3-oxa-8-azabicyclo[3.2.1]octan-8-yl)benzoyl]-2,4-dihydro-1,3-benzoxazin-8-yl]-5-fluoro-2-(3-oxa-8-azabicyclo[3.2.1]octan-8-yl)benzoic acid] | 2 nM |
| C[C@@H]1COCCN1c1cc(Cl)c(C(=O)N2COc3c(cccc3-c3cc(N4C5CCC4COC5)c(C(=O)O)cc3F)C2)c(Cl)c1 [Compound 1-42, 4-[3-[2,6-Dichloro-4-[(3R)-3-methylmorpholin-4-yl]benzoyl]-2,4-dihydro-1,3-benzoxazin-8-yl]-5-fluoro-2-(3-oxa-8-azabicyclo[3.2.1]octan-8-yl)benzoic acid] | 2.6 nM |
| O=C(O)c1cc(F)c(-c2cccc3c2OCN(C(=O)c2c(Cl)cc(N4C5CCCC4COC5)cc2Cl)C3)cc1N1C2CCC1COC2 [Compound 1-43, 4-[3-[2,6-Dichloro-4-(3-oxa-9-azabicyclo[3.3.1]nonan-9-yl)benzoyl]-2,4-dihydro-1,3-benzoxazin-8-yl]-5-fluoro-2-(3-oxa-8-azabicyclo[3.2.1]octan-8-yl)benzoic acid] | 1.8 nM |

Source: US20250171457A1, “NITROGEN-CONTAINING HETEROCYCLIC COMPOUND HAVING NRF2 ACTIVATION EFFECT” (CHUGAI SEIYAKU KABUSHIKI KAISHA, priority 2022, published 2025)
